Reference: patent US10646567B2, “Methods of treating cancer using PD-1 axis binding antagonists and MEK inhibitors” (Genentech, Inc., priority 2011, dated 2020)

Tests used:
[1] = system: CT26 murine colorectal cells; experiment: CT26 colorectal tumor model, anti-PD-L1 and GDC-0973 combination (second study); type: in vivo, BALB/c mice; settings: GDC-0973 7.5 mg/kg orally daily for 21 days
Method: For the second study, female BALB/c mice were inoculated subcutaneously in the unilateral thoracic region with 100,000 CT26 murine colorectal cells in 100 μL of HBSS:matrigel. When mice achieved a mean tumor volume of approximately 200 mm3, they were randomly assigned to one of six different treatment groups on experimental day 0 and treatment was initiated on experimental day 1.
For both studies, mice were monitored for tumor growth and body weight changes two to three times per week for the duration of the study. For measurement of tumor growth, tumor volume was measured using UltraCal-IV calipers (Model 54-10-111; Fred V. Fowler Company; Newton, Mass.) with length and width measurements perpendicular to one another, and tumor volume was calculated using the equation: Tumor Volume (mm^3)=(Length×Width^2)×0.5
Data was analyzed using R, version 2.9.2 (R Development Core Team 2008; R Foundation for Statistical Computing; Vienna, Austria), and the mixed models were fit within R using the nlme package, version 3.1-96 (Pinheiro J et al., R package version 3. 2009, 1-96). […] A mixed modeling approach was used to analyze the repeated measurement of tumor volumes from the same animals over time (Pinheiro J et al., Statistics and Computing, Springer. 2010). This approach addressed both repeated measurements and modest dropouts before study end for reasons classifiable statistically as missing at random (MAR). The fixed effect changes in log2 (volume) by time and dose are modeled as the sum of the main effects and interaction of a natural cubic regression spline basis in time with an auto-determined natural spline basis in dose. Intercepts and growth rates (slopes) were assumed to vary randomly by animal. Tumor growth inhibition as a percentage of the control-treated group (% TGI) was calculated as the percentage of the area under the fitted curve (AUC) for the respective treatment group per day in relation to the control while the control treated mice were still on study, using the equation: % TGI=100×(1−AUCdose/AUCvehicles)

human CD8+ T cells = experiment: CD8+ T cell proliferation (3H-thymidine); type: cell-based; settings: for T cell receptor induced proliferation, anti-CD3 stimulation: 0.01 μM MEKi; for T cell activation, co-stimulation with anti-CD3 and anti-CD28: 10 μM to 0.001 μM MEKi; for T cell proliferation, anti-CD3 stimulation: all MEKi concentrations tested (10 μM to 0.001 μM)
Method: Recent studies have shown that MEK inhibitor treatment impairs T lymphocyte function (Boni et al., Cancer Res., 70(13), 2010). To confirm that MEK inhibitor treatment impaired CD8+ T cells, T cells were treated with MEKi in combination with T cell stimulation signals and assayed for T cell proliferation. Briefly, human CD8+ T cells were purified from whole blood using StemCell Technologies human CD8 RosetteSep as per manufacturer's instructions. Purified cells were plated at 200,000 per well in triplicate in 96-well U-bottom plates with 200,000 per well of either anti-CD3 or anti-CD3/anti-CD28 Dynabeads (Invitrogen). MEK inhibitors GDC-0973 and G-38963 were titrated 10-fold from 10 μM to 0.001 μM such that the final culture concentration was 0.5% DMSO in a total volume of 200 μl per well. […] Gluta-MAX, sodium pyruvate, penicillin/streptomycin, and non-essential amino acids. At 48 hours, wells were pulsed with 1 μCi/well of 3H-thymidine and cultured an additional 16 hours prior to freezing and harvest.

[2] = system: human monocyte-derived dendritic cells; experiment: Maturation and activation of monocyte-derived dendritic cells with anti-CD40 (FACS); type: cell-based; settings: for frequency of DCs expressing surface markers of DC maturation and activation: increasing concentrations 0.001 μM to 10 μM, anti-CD40 co-stimulation
Method: Briefly, human monocytes were purified from whole blood using StemCell Technologies human monocyte RosetteSep as per manufacturer's instructions. Monocytes were seeded in T175 flasks at approximately 0.5-1.0×10^6 per ml in 50 ng/ml human GM-CSF and 100 ng/ml human IL-4 for 7 days total, with half-media exchanges every 2 days. […] MEK inhibitors and BRAF inhibitor were titrated 10-fold from 10 μM to 0.001 μM such that the final culture concentration was 0.5% DMSO in a total volume of 200 μl per well. Forty-eight hours later, cells were harvested and transferred to a 96-well V-bottom plate. […] HLA-DR,-DP,-DQ-FITC, HLA-ABC-PE, CD83-APC, CD14-FITC, CD80-PE, and CD86-APC. Propidium iodide was included to exclude dead cells. Samples were run on a BD FACSCaliber flow cytometer and data was analyzed using FlowJo software (Tree Star, Inc.).

[3] = system: mouse bone marrow dendritic cells; experiment: Activation of mouse bone marrow derived dendritic cells (FACS); type: cell-based; settings: GDC-0973 1 μM, anti-PD-L1 10 μg/ml, 48 hours
Method: Briefly, mouse bone marrow cells were isolated and seeded at 2×10^6 per 10 ml total volume per 10 cm non-tissue culture treated dishes with 40 ng/ml mouse GM-CSF for 7 days. Fresh media was half-exchanged every 2-3 days. Culture medium was RPMI-1640 with 10% fetal bovine serum, 20 μM HEPES, 55 μM 2-mercaptoethanol, 50 μg/ml gentamicin, and 1:100 dilutions of the following supplements from Gibco: Gluta-MAX, sodium pyruvate, penicillin/streptomycin, and non-essential amino acids. On day 7 all cells were harvested and washed, then seeded at 100,000 cells/well in a 96-well flat-bottom plate. MEK inhibitor GDC-0973 was added at a final concentration of 1 μM, anti-PDL1 human/mouse reverse chimera or anti-Ragweed mouse IgG2a isotype control (Genentech PUR 22251) were added at 10 μg/ml. […] After 48 hours of stimulation, cells were harvested and transferred to a 96-well V-bottom plate. Samples were first Fc receptor blocked (purified anti-CD16/CD32 from BD Biosciences, 5 μg/ml) and then stained with I-A/I-E-FITC, H-2Db/H-2Kb-biotin (followed by streptavidin-PE), CD11c-APC, CD86-FITC, and CD80-PE (all from BD Biosciences). Propidium iodide was included to exclude dead cells. Samples were run on a BD FACSCaliber flow cytometer and data was analyzed using FlowJo software (Tree Star, Inc.).

[4] = system: mouse tumor cell lines (MC38, B16.F10, CT26); experiment: Surface MHC-I expression on mouse tumor cell lines (FACS); type: cell-based; settings: 1 micromolar, 24 hours, compared to vehicle treated cells
Method: To determine if treatment with MEK inhibitor (MEKi) enhanced immunogenicity of mouse tumor cells similarly to human tumor cells, surface expression of MHC-I on mouse tumor cell lines treated with MEKi GDC-0973 was assayed. Briefly, mouse melanoma cell lines ([…]) and a mouse colorectal cell line (CT26) were treated with MEKi GDC-0973, G-38963 or vehicle. Briefly, cells were stimulated for 24 hours with 1 micromolar MEK inhibitor or DMSO vehicle control. Following treatment, cells were surfaced stained with an antibody against MHC-I (H-2D) and expression was assayed by subsequent FACS analysis. Labeled isotype-matched antibodies were used to determine the level of non-specific staining.

[5] = system: CT26 murine colorectal cells; experiment: CT26 colorectal tumor model, GDC-0973 dose study (first study); type: in vivo, BALB/c mice
Method: For the first study, female BALB/c mice were inoculated subcutaneously in the unilateral thoracic region with 100,000 CT26 murine colorectal cells in 100 μL of HBSS:matrigel. […] Groups of 10 mice were orally given the following in a volume of 200 μl daily for 21 days: Group 1 received MCT vehicle; Group 2 received 0.5 mg/kg GDC-0973; Group 3 received 1.0 mg/kg GDC-0973; Group 4 received 2.0 mg/kg GDC-0973; Group 5 received 3.0 mg/kg GDC-0973; Group 6 received 4.0 mg/kg GDC-0973; Group 7 received 5.0 mg/kg GDC-0973; Group 8 received 6.0 mg/kg GDC-0973; and Group 9 received 7.5 mg/kg GDC-0973. For both studies, mice were monitored for tumor growth and body weight changes two to three times per week for the duration of the study. […] Fred V. Fowler Company; Newton, Mass.) with length and width measurements perpendicular to one another, and tumor volume was calculated using the equation: Tumor Volume (mm^3)=(Length×Width^2)×0.5 For measurement of body weights, mice were weighed using an Adventura Pro AV812 scale (Ohaus Corporation; Pine Brook, N.J.). Percent body weight change was calculated using the equation: Body weight change (%)=[(WeightDay new−WeightDay 0)/WeightDay 0]×100 Data was analyzed using R, version 2.9.2 (R Development Core Team 2008; R Foundation for Statistical Computing; Vienna, Austria), and the mixed models were fit within R using the nlme package, version 3.1-96 (Pinheiro J et al., R package version 3. 2009, 1-96). Plotting was performed in Prism, version 5.0b for Mac (GraphPad Software, Inc.; La Jolla, Calif.). A mixed modeling approach was used to analyze the repeated measurement of tumor volumes from the same animals over time (Pinheiro J et al., Statistics and Computing, Springer. 2010). This approach addressed both repeated measurements and modest dropouts before study end for reasons classifiable statistically as missing at random (MAR). The fixed effect changes in log2 (volume) by time and dose are modeled as the sum of the main effects and interaction of a natural cubic regression spline basis in time with an auto-determined natural spline basis in dose. Intercepts and growth rates (slopes) were assumed to vary randomly by animal. […] Complete Response (CR) was defined as an individual animal whose tumor volume fell below the Limit of Detection (LOD), at any time during the study. Partial Response (PR) was defined as an individual animal whose tumor volume decreased by 50% of its initial tumor volume at any time during the study. Overall Response Rate (ORR) was defined as the sum of the complete and partial responses. Time To Progression 5X (TTP5X) was defined as the time in days for a group's fitted tumor volume (based upon the mixed modeling analysis described above) to exceed 5 times the starting volume, rounded to the nearest half day and reported as the TTP5X for that group. Linear mixed-effects analysis was also employed to analyze the repeated measurement of body weight changes from the same animals over time.

[6] = system: human melanoma cell lines and human colorectal cell lines; experiment: Surface MHC-I expression on human tumor cell lines (FACS); type: cell-based; settings: 1 micromolar, 24 hours, compared to vehicle treated cells
Method: To determine if treatment with MEK inhibitor (MEKi) enhanced immunogenicity of tumor cells, surface expression of MHC-I on tumor cell lines treated with MEK inhibitors GDC-0973 and G-38963 was assayed. Briefly, human melanoma cell lines (Malme-3M, A2058, […][…], SK23, SKMEL-28, 537 Mel, RPMI-795) and human colorectal cell lines (Colo 320 DM, Colo 205, WiDr, Colo 741, RKO, DLD-1, HM7, HCT-15) were treated with 1 micromolar […]-0973 or G-38963, BRAF inhibitor (BRAFi) GDC-0879, or DMSO vehicle for 24 hours. Following treatment, cells were stained for surface MHC Class I expression with an antibody against […] for subsequent FACS analysis. Data shown is for treatment […]-0973. Labeled isotype-matched antibodies were used to determine the level of non-specific staining.

[7] = system: human peripheral blood mononuclear cells; experiment: Surface MHC-I expression on human PBMCs (FACS); type: cell-based; settings: 1 μM or 3 μM, 24 hours; CD4+ T cells, CD8+ T cells, B cells, monocytes; compared to vehicle
Method: To determine if enhanced cell surface expression of MHC-I is specific to tumor cells, the effect of MEKi treatment on MHC-I expression on human peripheral blood mononuclear cells (PMBCs) was assayed. Briefly, PMBCS were isolated from whole blood by first diluting it with an equal volume of room temperature PBS and subsequent overlay onto Ficoll-filled Leucosep tubes (Greiner Bio-One). […] Gluta-MAX, sodium pyruvate, penicillin/streptomycin, and non-essential amino acids). Cells were plated in 6 well plates at 4×10^6 per well with a total of 4 ml per well. MEK inhibitor GDC-0973 was added at either 1 μM or 3 μM. Cells were harvested 24 hours later and distributed to a 96-well V-bottom plate for FACS staining. […] CD3-FITC, HLA-ABC-PE, CD4-APC, CD19-FITC, and CD14-FITC. Propidium iodide was included to exclude dead cells. Samples were run on a BD FACSCaliber flow cytometer and data was analyzed using FlowJo software (Tree Star, Inc.).

[8] = system: Cloudman S91 melanoma tumors; experiment: Melanoma tumor mouse model; type: in vivo, mice; settings: anti-PD-L1 10 mg/kg ip 3x/week for 3 weeks; G-38963 75 mg/kg orally daily 21 days
Method: (§1) To determine if MEKi enhanced the anti-tumor effect of anti-PD-L1 antibodies, mouse models for melanoma tumors were treated with the combination treatment. Briefly, mice were inoculated subcutaneously with tumor cells and allowed to grow tumors. When tumor bearing mice achieved a mean tumor volume of 100-200 mm3, mice were randomly assigned to 1 of 4 treatment groups. […] Mice were monitored for tumor growth and body weight changes.

colorectal tumors = experiment: Colorectal tumor mouse model, G-38963 and anti-PD-L1; type: in vivo, mice; settings: early (200 mm3) or late (450 mm3) intervention; anti-PD-L1 10 mg/kg ip 3x/week for 3 weeks; G-38963 75 mg/kg orally daily 21 days
Method: as §1, with “colorectal” for “melanoma”, “200 mm3 (FIG. 7A) or 450 mm3 (FIG. 7B),” for “100-200 mm3,”

[9] = system: serum IL-10 and KC in tumor bearing animals; experiment: Serum cytokine levels in tumor bearing mice (Bio-Plex); type: in vivo; settings: melanoma and colorectal models, 7 days after treatment
From the text: Briefly, 7 days after treatment, mice were anaesthetized and bled retro-orbitally for serum.

## O=C(c1ccc(F)c(F)c1Nc1ccc(I)cc1F)N1CC(O)([C@@H]2CCCCN2)C1 [GDC-0973, Methanone, [3,4-difluoro-2-[(2-fluoro-4-iodophenyl)amino]phenyl][3-hydroxy-3-(2S)-2-piperidinyl-1-azetidinyl]-]
[1]
  % CR: 0%
  % PR: 10%
  % TGI: 71%
  TTP5X: 21.5 days
Human CD8+ T cells
  T cell receptor induced proliferation, anti-CD3 stimulation: nearly complete inhibition
  T cell activation, co-stimulation with anti-CD3 and anti-CD28: sufficient to overcome the inhibitory effect of MEKi
  T cell proliferation, anti-CD3 stimulation: reduced the stimulatory effect of anti-CD3
[2]; 1 μM, anti-CD40, 48 hours, compared to vehicle
  frequency of cells expressing CD83, MHC-II and CD86: increased
[2]
  frequency of DCs expressing surface markers of DC maturation and activation: enhanced the frequency of DCs expressing these surface markers
[3]
  DC surface activation markers MHC-II, CD80, CD86: enhanced
  DC surface expression of MHC-I: enhanced
[4]
  cell surface expression of MHC-I: upregulated
[5]; 0.5 mg/kg orally daily for 21 days
  % TGI: −8%
[5]; 1.0 mg/kg orally daily for 21 days
  % TGI: −16%
[5]; 2.0 mg/kg orally daily for 21 days
  % TGI: −21%
[5]; 3.0 mg/kg orally daily for 21 days
  % TGI: −4%
[5]; 4.0 mg/kg orally daily for 21 days
  % TGI: 27%
[5]; 5.0 mg/kg orally daily for 21 days
  % TGI: 55%
[5]; 6.0 mg/kg orally daily for 21 days
  % TGI: 72%
[5]; 7.5 mg/kg orally daily for 21 days
  % TGI: 87%
[5]; increasing doses, maximal inhibition at 7.5 mg/kg at 20 days post-treatment
  tumor growth: suppressed tumor growth
[6]
  cell surface expression of MHC-I: upregulated
[7]
  cell surface expression of MHC-I: not upregulated

## O=C(NOCCO)c1oc2ccncc2c1Nc1ccc(I)cc1F [Compound G-38963]
[8]
  tumor growth: highly effective as a single agent therapy at preventing tumor growth
Human CD8+ T cells
  T cell receptor induced proliferation, anti-CD3 stimulation: nearly complete inhibition
  T cell activation, co-stimulation with anti-CD3 and anti-CD28: sufficient to overcome the inhibitory effect of MEKi
  T cell proliferation, anti-CD3 stimulation: reduced the stimulatory effect of anti-CD3
[2]
  frequency of DCs expressing surface markers of DC maturation and activation: enhanced the frequency of DCs expressing these surface markers
[4]
  cell surface expression of MHC-I: upregulated
[6]
  cell surface expression of MHC-I: upregulated
Colorectal tumors
  tumor growth: highly effective as a single agent therapy at preventing tumor growth
[9]
  serum IL-10 level: decreased
